Assay [1] deals with RKO colon adenocarcinoma cells (RKOp27) arrested by expression of ectopic p27Kip1. In words: Alamar Blue cell viability assay, cell cycle specific mode of action, RKO p27 induced (arrested by Ponasterone A-induced p27Kip1). It is filed as cell-based. The following applies: Homo sapiens, RKOp27, 72 h, cells arrested by p27Kip1 induced with 10 μM Ponasterone A, 72 hours incubation. Here is the method: To determine the cell cycle specific mode of action, subdlones of RKO colon adenocarcinoma cells (RKOp27 or RKOp21 as described by Schmidt et al. in Oncogene 19, 2423-2429; 2000) are seeded into 96 well flat bottom plates at a density of 16000 cells per well in a volume of 50 μl per well in DMEM growth medium with 10% FCS containing 10 μM Ponasterone A. 24 hours after seeding the 50 μl each of the compound dilutions in DMEM medium are added into each well of the 96 Well plate. Each compound dilution is tested as quadruplicates. Wells containing untreated control cells are filled with 50 μl DMEM medium containing 1% DMSO. The cells are then incubated with the substances for 72 hours at 37° C. in a humidified atmosphere containing 5% carbon dioxide. To determine the viability of the cells, 10 μl of an Alamar Blue solution (Biosource) are added and the fluorescence was measured at an extinction of 544 nm and an emission of 590 nm. For the calculation of the cell viability the emission value from untreated cells is set as 100% viability and the emission rates of treated cells are set in relation to the values of untreated cells. Viabilities are expressed as % values. Viability is compared of proliferating cells grown in the absence of the inducer Ponasterone A, versus viability of cells arrested by the expression of ectopic p27Kip1 induced by Ponasterone A. The data of this experimental setting are summarized in table A (2nd column).
In general terms: Resazurin is reduced to fluorescent resorufin, in cell work by metabolically active cells.

Assay [2] relates to RKO (RKOp27) human colon adenocarcinoma cells. The assay is described as follows: Alamar Blue cell viability assay, anti-proliferative/cytotoxic activity, RKO p27 uninduced. The class given is cell-based. The note with it: RKOp27, 72 h, proliferating cells, absence of the inducer Ponasterone A, 72 hours incubation. On the procedure: The anti-proliferative/cytotoxic activity of the compounds described herein, can be tested on subdlones of RKO (RKOp27) human colon adenocarcinoma cells (Schmidt et al., Oncogene 19, 2423-2429; 2000) using the Alamar Blue cell viability assay (described in O'Brien et al. Eur J Biochem 267, 5421-5426, 2000). The compounds are dissolved as 20 mM solutions in dimethylsulfoxide (DMSO) and subsequently diluted in semi-logarithmic steps. DMSO dilutions are further diluted 1:100 into Dulbecco's modified Eagle's medium (DMEM) containing 10% fetal calf serum to a final concentration twice as much as the final concentration in the test. RKO subclones are seeded into 96 well flat bottom plates at a density of 4000 cells per well in a volume of 50 µl per well. 24 hours after seeding the 50 μl each of the compound dilutions in DMEM medium are added into each well of the 96 Well plate. Each compound dilution is tested as quadruplicates. Wells containing untreated control cells are filled with 50 μl DMEM medium containing 1% DMSO. The cells are then incubated with the substances for 72 hours at 37° C. in a humidified atmosphere containing 5% carbon dioxide. To determine the viability of the cells, 10 μl of an Alamar Blue solution (Biosource) are added and the fluorescence is measured at an extinction of 544 nm and an emission of 590 nm. For the calculation of the cell viability the emission value from untreated cells is set as 100% viability and the emission rates of treated cells are set in relation to the values of untreated cells. Viabilities are expressed as % values.
The corresponding IC50 values of the compounds for anti-proliferative/cytotoxic activity are determined from the concentration-effect curves.
Representative IC50 values for anti-proliferation/cytotoxicity determined for the compounds mentioned and numbered as Examples in the examples above follow from the following table A (1st column), in which the numbers of the compound correspond to the numbers of the examples. Any or all of the compounds according to the present invention which are listed in the Table A, as well as their salts, are to be mentioned as a particular interesting subject of the present invention.

Bounds are passed on as bounds.

Usually IC50 stands for the concentration needed to halve the response being measured. In the case of `CCOCCCNC(=O)N1CCc2c(sc(NC(=O)c3ccccc3)c2C#N)C1` [Compound 100, 3-Cyano-2-[(1-phenyl-methanoyl)-amino]-4,7-dihydro-5H-hieno[2,3-c]pyridine-6-carboxylic acid (3-ethoxy-propyl)-amide], the IC50 was more than 100 µM in assay [1] and not above 3 µM in assay [2].

For `N#Cc1c(NC(=O)c2ccccc2)sc2c1CCN(C(=O)CCCn1ccnc1)C2` [Compound 85, N-[3-Cyano-6-(4-imidazol-1-yl-butanoyl)-4,5,6,7-tetrahydro-thieno[2,3-c]pyridin-2-yl]-benzamide], the IC50 was more than 100 µM in assay [1] and not above 3 µM in assay [2].

Take `CC(=O)OCC(=O)N1CCc2c(sc(NC(=O)c3ccccc3)c2C#N)C1` [Compound 84, Acetic acid 2-3-cyano-2-[(1-phenyl-methanoyl)-amino]-4,7-dihydro-5H-thieno[2,3-c]pyridin-6-yl-2-oxo-ethyl ester]: the half-inhibitory concentration (IC50) is more than 100 µM in assay [1] and not above 3 µM in assay [2].

Turning to `N#Cc1c(NC(=O)c2ccccc2)sc2c1CCN(C(=O)Oc1ccccc1)C2` [Compound 59, 3-Cyano-2-[(1-phenyl-methanoyl)-amino]-4,7-dihydro-5H-thieno[2,3-c]pyridine-6-carboxylic acid phenyl ester], the IC50 is more than 60 µM in assay [1] and not above 3 µM in assay [2].

For `CCCCCCC(=O)N1CCc2c(sc(NC(=O)c3ccccc3)c2C#N)C1` [Compound 6], the results for the half-maximal inhibitory concentration (IC50) in assay [1] and in assay [2] were more than 100 µM and not above 2 µM, respectively.

Consider `N#Cc1c(NC(=O)c2ccccc2)sc2c1CCN(C(=O)CCCO)C2` [Compound 88, N-[3-Cyano-6-(4-hydroxy-butanoyl)-4,5,6,7-tetrahydro-thieno[2,3-c]pyridin-2-yl]-benzamide], for which the IC50 in assay [1] is more than 100 µM; in assay [2] it was not above 3 µM.

Take `COCC(=O)N1CCc2c(sc(NC(=O)c3ccccc3)c2C#N)C1` [Compound 32, N-[3-Cyano-6-(2-methoxy-ethanoyl)-4,6,7-tetrahydro-thieno[2,3-c]pyridin-2-yl]-benzamide]: the IC50 in assay [1] was more than 60 µM; in assay [2], not above 3 µM.

Take `CCCCCCOC(=O)N1CCc2c(sc(NC(=O)c3ccccc3)c2C#N)C1` [Compound 57, 3-Cyano-2-[(1-phenyl-methanoyl)-amino]-4,7-dihydro-5H-thieno[2,3-c]pyridine-6-carboxylic acid hexyl ester]: the results for the IC50 in assay [1] and in assay [2] were more than 60 µM and not above 3 µM, respectively.

With `N#Cc1c(NC(=O)c2ccccc2)sc2c1CCN(C(=O)OCCCc1ccncc1)C2` [Compound 69, 3-Cyano-2-[(1-phenyl-methanoyl)-amino]-4,7-dihydro-5H-thieno[2,3-c]pyridine-6-carboxylic acid 3-pyridin-4-yl-propyl ester], the 50% inhibitory concentration (IC50) was more than 60 µM in assay [1] and not above 3 µM in assay [2].

As to `N#Cc1c(NC(=O)c2ccccc2)sc2c1CCN(C(=O)NCCc1ccncc1)C2` [Compound 80, 3-Cyano-2-[(1-phenyl-methanoyl)-amino]-4,7-dihydro-5H-thieno[2,3-c]pyridine-6-carboxylic acid (2-pyridin-4-yl-ethyl)-amide], the half-maximal inhibitory concentration (IC50) in assay [1] is more than 60 µM; in assay [2] it was not above 3 µM.

Consider `N#Cc1c(NC(=O)c2ccccc2)sc2c1CCN(C(=O)CCC(N)=O)C2` [Compound 8], for which the IC50 in assay [1] is more than 100 µM; in assay [2], not above 2 µM.

Consider `N#Cc1c(NC(=O)c2ccccc2)sc2c1CCN(C(=O)CCc1c[nH]c3ccccc13)C2` [Compound 30, N-[3-Cyano-6-(3-1H-indol-3-yl-propanoyl)-4,5,6,7-tetrahydro-thieno[2,3-c]pyridin-2-yl]-benzamide], for which the figures for the concentration for half-maximal inhibition (IC50) in assay [1] and in assay [2] were more than 60 µM and not above 3 µM, respectively.

Consider `CCCCCSC(=O)N1CCc2c(sc(NC(=O)c3ccccc3)c2C#N)C1` [Compound 101, 3-Cyano-2-[(1-phenyl-methanoyl)-amino]-4,7-dihydro-5H-thieno[2,3-c]pyridine6-carbothioic acid S-pentyl ester], for which the concentration for half-maximal inhibition (IC50) was more than 100 µM in assay [1] and not above 3 µM in assay [2].

As for `COc1ccc(S(=O)(=O)N2CCc3c(sc(NC(=O)c4ccccc4)c3C#N)C2)cc1` [Compound 79, N-[3-Cyano-6-(4-methoxy-benzenesulfonyl)-4,5,6,7-tetrahydro-thieno[2,3-c]pyridin-2-yl]-benzamide], the concentration for half-maximal inhibition (IC50) in assay [1] is more than 60 µM; in assay [2], not above 3 µM.

Consider `CCOC(=O)N1CCc2c(sc(NC(=O)c3cccc(OC)c3)c2C#N)C1` [Compound 12, N-(6-Ethoxycarbonyl-3-cyano-4,5,6,7-tetrahydro-thieno[2,3-c]pyridin-2-yl)-3-methoxybenzamide], for which the results for the half-maximal inhibitory concentration (IC50) in assay [1] and in assay [2] were more than 100 µM and not above 2 µM, respectively.

`CCCOC(=O)N1CCc2c(sc(NC(=O)c3ccccc3)c2C#N)C1` [Compound 64, 3-Cyano-2-[(1-phenyl-methanoyl)-amino]-4,7-dihydro-5H-thieno[2,3-c]pyridine-6-carboxylic acid propyl ester]: the IC50 was more than 60 µM in assay [1] and not above 3 µM in assay [2].

For `CCCCCOC(=O)N1CCc2c(sc(NC(=O)c3ccccc3)c2C#N)C1` [Compound 14], the IC50 was more than 100 µM in assay [1] and not above 2 µM in assay [2].

`CCOC(=O)N1CCc2c(sc(NC(=O)c3ccccc3)c2C#N)C1` [Compound 18, N-(6-Ethoxycarbonyl-3-cyano-4,5,6,7-tetrahydro-thieno[2,3-c]pyridin-2-yl)-benzamide]: the 50% inhibitory concentration (IC50) was more than 100 µM in assay [1] and not above 2 µM in assay [2].

In the case of `CC(=O)CCC(=O)N1CCc2c(sc(NC(=O)c3ccccc3)c2C#N)C1` [Compound 27, N-[3-Cyano-6-(4-oxo-pentanoyl)-4,5,6,7-tetrahydro-thieno[2,3-c]pyridin-2-yl]-benzamide], the IC50 was more than 100 µM in assay [1] and not above 2 µM in assay [2].

Regarding `COc1cccc(C(=O)Nc2sc3c(c2C#N)CCN(C(C)=O)C3)c1` [Compound 24, N-(6-Acetyl-3-cyano-4,5,6,7-tetrahydro-thieno[2,3-c]pyridin-2-yl)-3-methoxy-benzamide], the results for the half-maximal inhibitory concentration (IC50) in assay [1] and in assay [2] were more than 100 µM and not above 2 µM, respectively.

`N#Cc1c(NC(=O)c2ccccc2)sc2c1CCN(C(=O)OCCCc1ccccn1)C2` [Compound 71, 3-Cyano-2-[(1-phenyl-methanoyl)-amino]-4,7-dihydro-5H-thieno[2,3-c]pyridine-6-carboxylic acid 3-pyridin-2-yl-propyl ester]: the IC50 is more than 60 µM in assay [1] and not above 3 µM in assay [2].

Take `COc1cccc(C(=O)Nc2sc3c(c2C#N)CCN(C(=O)OC(C)(C)C)C3)c1` [Compound 3, N-(6-tert.-Butyloxycarbonyl-3-cyano-4,5,6,7-tetrahvdro-thieno[2,3-c]pyridin-2-yl)-3-methoxybenzamide]: the IC50 in assay [1] was more than 100 µM; in assay [2], not above 2 µM.

In the case of `CCCCOC(=O)N1CCc2c(sc(NC(=O)c3ccccc3)c2C#N)C1` [Compound 58, 3-Cyano-2-[(1-phenyl-methanoyl)-amino]-4,7-dihydro-5H-thieno[2,3-c]pyridine-6-carboxylic acid butyl ester], the IC50 in assay [1] is more than 60 µM; in assay [2] it was not above 3 µM.

With `N#Cc1c(NC(=O)c2ccccc2)sc2c1CCN(C(=O)CCNC(=N)N)C2` [Compound 39, N-[3-Cyano6-(3-guanidino-propanoyl)-4,5,6.7-tetrahydro-thieno[2,3-c]pyridin-2-yl]-benzamide], the 50% inhibitory concentration (IC50) in assay [1] was more than 60 µM; in assay [2], not above 3 µM.

Values taken from patent US7714134B2, “Compounds and use of tetrahydropyridothiophenes” (4SC AG, priority 2004, dated 2010).
